PubChem BioAssay (NCI)
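Following 48 hours of exposure in 96-well plates, responses at five concentrations were used to interpolate endpoints linearly. GI50 marks 50% less growth. TGI is the concentration that stops growth completely.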

Columns and labels:
Assay in all cases: DTP human tumour cell line panel, 48 h
[1] = tested on: ACHN renal
[2] = tested on: SK-MEL-28 melanoma
[3] = tested on: HS 578T breast
[4] = tested on: OVCAR-4 ovarian
[5] = tested on: 786-0 renal
[6] = tested on: HOP-62 NSCLC
[7] = tested on: NCI/ADR-RES ovarian
[8] = tested on: HT29 colon
[9] = tested on: MDA-MB-435
[10] = tested on: SW-620 colon
[11] = tested on: HCC-2998 colon
[12] = tested on: KM12 colon
[13] = tested on: BT-549 breast
[14] = tested on: EKVX NSCLC
[15] = tested on: MALME-3M melanoma
[16] = tested on: NCI-H23 lung
[17] = tested on: SF-295 CNS
[18] = tested on: OVCAR-8 ovarian
[19] = tested on: A498 renal
[20] = tested on: MDA-MB-231 breast
[21] = tested on: SNB-75 CNS
[22] = tested on: OVCAR-5 ovarian
[23] = tested on: K-562 leukemia
[24] = tested on: SK-MEL-5 melanoma
[25] = tested on: T-47D breast
[26] = tested on: MCF7 breast
[27] = tested on: RPMI-8226 leukemia
[28] = tested on: HOP-92 NSCLC
[29] = tested on: COLO 205 colon
[30] = tested on: HCT-15 colon
[31] = tested on: NCI-H522 lung
[32] = tested on: TK-10 renal
[33] = tested on: CAKI-1 renal
[34] = tested on: UACC-62 melanoma
[35] = tested on: RXF 393 renal
[36] = tested on: SF-539 CNS
[37] = tested on: SK-MEL-2 melanoma
[38] = tested on: SNB-19 CNS
[39] = tested on: M14 melanoma
[40] = tested on: U251 CNS
[41] = tested on: MOLT-4 leukemia
[42] = tested on: NCI-H460 lung
[43] = tested on: PC-3 prostate
[44] = tested on: LOX IMVI melanoma
[45] = tested on: SF-268 CNS
[46] = tested on: OVCAR-3 ovarian
[47] = tested on: SN12C renal
[48] = tested on: DU-145 prostate
[49] = tested on: SK-OV-3 ovarian
[50] = tested on: IGROV1 ovarian
[51] = tested on: NCI-H226 lung
[52] = tested on: HCT-116 colon
[53] = tested on: HL-60(TB) leukemia
[54] = tested on: UO-31 renal
[55] = tested on: A549 NSCLC
[56] = tested on: CCRF-CEM leukemia

COc1ccc(/C=C/c2nnc(/C=C/c3ccc(OC)c(OC)c3)o2)cc1OC
GI50 [1]: 13.9 µM | TGI [1]: > 100 µM | GI50 [2]: 4.96 µM | TGI [2]: > 100 µM | GI50 [3]: 3.71 µM | TGI [3]: 47.5 µM | GI50 [4]: 9.08 µM | TGI [4]: > 100 µM | GI50 [5]: 5.59 µM | TGI [5]: > 100 µM | GI50 [6]: 5.21 µM | TGI [6]: > 100 µM | GI50 [7]: 3.52 µM | TGI [7]: > 100 µM | GI50 [8]: 2.61 µM | TGI [8]: 10.8 µM | GI50 [9]: 0.929 µM | TGI [9]: 3.93 µM | GI50 [10]: 3.35 µM | TGI [10]: > 100 µM | GI50 [11]: 19.4 µM | TGI [11]: > 100 µM | GI50 [12]: 6.86 µM | TGI [12]: > 100 µM | GI50 [13]: 2.9 µM | TGI [13]: 35.7 µM | GI50 [14]: 6.22 µM | TGI [14]: > 100 µM | GI50 [15]: 6.16 µM | TGI [15]: > 100 µM | GI50 [16]: 4.4 µM | TGI [16]: > 100 µM | GI50 [17]: 2.95 µM | TGI [17]: 17.7 µM | GI50 [18]: 8.78 µM | TGI [18]: > 100 µM | GI50 [19]: 0.24 µM | TGI [19]: 9.1 µM | GI50 [20]: 3.62 µM | TGI [20]: 43.4 µM | GI50 [21]: 4.22 µM | TGI [21]: 45.5 µM | GI50 [22]: 4.9 µM | TGI [22]: 53.8 µM | GI50 [23]: 1.83 µM | TGI [23]: > 100 µM | GI50 [24]: 2.17 µM | TGI [24]: 10.1 µM | GI50 [25]: 3.48 µM | TGI [25]: 81.2 µM | GI50 [26]: 3.44 µM | TGI [26]: > 100 µM | GI50 [27]: 2.65 µM | TGI [27]: > 100 µM | GI50 [28]: 2.52 µM | TGI [28]: 23.3 µM | GI50 [29]: 8.35 µM | TGI [29]: 98.2 µM | GI50 [30]: 2.78 µM | TGI [30]: > 100 µM | GI50 [31]: 1.9 µM | TGI [31]: 6.8 µM | GI50 [32]: 3.77 µM | TGI [32]: 27.8 µM | GI50 [33]: 11.4 µM | TGI [33]: > 100 µM | GI50 [34]: 2.39 µM | TGI [34]: 9.91 µM | GI50 [35]: 7.9 µM | TGI [35]: 78.1 µM | GI50 [36]: 2.66 µM | TGI [36]: 9.4 µM | GI50 [37]: 2.9 µM | TGI [37]: 18.6 µM | GI50 [38]: 4.11 µM | TGI [38]: 91.7 µM | GI50 [39]: 3.1 µM | TGI [39]: 26 µM | GI50 [40]: 3.81 µM | TGI [40]: 18.6 µM | GI50 [41]: 3.24 µM | TGI [41]: > 100 µM | GI50 [42]: 4.23 µM | TGI [42]: > 100 µM | GI50 [43]: 4.07 µM | TGI [43]: > 100 µM | GI50 [44]: 3.11 µM | TGI [44]: 29 µM | GI50 [45]: 7.77 µM | TGI [45]: > 100 µM | GI50 [46]: 5.01 µM | TGI [46]: 80.8 µM | GI50 [47]: 5.5 µM | TGI [47]: > 100 µM | GI50 [48]: 15 µM | TGI [48]: > 100 µM | GI50 [49]: 8.62 µM | TGI [49]: 93.3 µM | GI50 [50]: 4.23 µM | TGI [50]: > 100 µM | GI50 [51]: 14.9 µM | TGI [51]: > 100 µM | GI50 [52]: 2.57 µM | TGI [52]: 17.7 µM | GI50 [53]: 2.36 µM | TGI [53]: 8.6 µM | GI50 [54]: 4.78 µM | TGI [54]: > 100 µM | GI50 [55]: 4.84 µM | TGI [55]: > 100 µM | GI50 [56]: 3.97 µM | TGI [56]: > 100 µM
